Measurements from article PMC6436837 (Antiviral research, 2018).
Where two headings read alike, the source gives them in different places.

Legend:
EBOV-GFP [1] = assay type: cell-based, Ebola virus
EBOV polymerase complex = assay type: cell-based, Ebola virus
ISG54, ISG56, and MX1 = assay type: cell-based, human
VSV-GFP = test: microbe, parasite or virus in culture; assay type: cell-based, vesicular stomatitis virus; conditions: read-out: IC50 against VSV-GFP
ISRE promoter [2] = assay type: cell-based, mouse
ZIKV = test: microbe, parasite or virus in culture; assay type: cell-based, Zika virus; conditions: read-out: IC50 against ZIKV
EBOV-GFP [3] = test: microbe, parasite or virus in culture; assay type: cell-based, Ebola virus; conditions: for IC50: read-out: IC50 against EBOV-GFP
ISRE promoter [4] = assay type: cell-based, human

| SMILES | Reduction of viral titers in cell culture supernatants (EBOV-GFP [1]) | Activity in EBOV MG assay (EBOV polymerase complex) | ISG54 and ISG56 mRNA response (ISG54, ISG56, and MX1) | Effect on cell viability (Vero cells) | IC50 (VSV-GFP) | ISRE reporter induction in MEFs (ISRE promoter [2]) | Effect on cell viability (A549 cells) | IC50 (ZIKV) | IC50 (EBOV-GFP [3]) | Activation of ISRE promoter (ISRE promoter [4]) | Inhibition of EBOV replication (EBOV-GFP [1]) | IC50 (EBOV polymerase complex; read-out: IC50 in EBOV MG assay) | IC50 (VSV-GFP; Vesicular stomatitis virus, Vero, 21 h) | IC50 (ZIKV; Zika virus, Vero, 48 h) | IC50 (EBOV-GFP [3]; Zaire ebolavirus, HeLa, 24 h) | Activity against EBOV-GFP (EBOV-GFP [3]) |
| --- | --- | --- | --- | --- | --- | --- | --- | --- | --- | --- | --- | --- | --- | --- | --- | --- |
| O=C(NC1CCCc2c1[nH]c1ccc(Cl)cc21)c1ccccn1 (stereo not drawn) [SW835] | > 200 fold | potent activity | responded | no significant effect on cell viability | 0.4 µM | not affected in IFNAR knockout cells | no effect on cell viability | 0.04 µM | ~0.02 µM | activated the ISRE promoter | – | – | – | – | – | – |
| Cc1c(-c2ccc(-c3ccccc3F)cc2)nc2ccc(F)cc2c1C(=O)O [brequinar, reference compound] | – | – | responded | – | – | not statistically significant compared to DMSO-treated cells | – | – | – | activated the ISRE promoter | potently inhibited virus growth | 0.1 µM | 0.5 µM | 0.3 µM | 0.1 µM | – |
| O=C(N[C@@H]1CCCc2c1[nH]c1ccc(Cl)cc21)c1ccccn1 [GSK983, reference compound] | > 200 fold | – | – | – | – | – | no effect on cell viability | – | – | – | – | – | – | – | – | highly active, even at the lowest concentration tested |
| O=C(NC1CCCc2c1[nH]c1ccc(Cl)cc21)c1ccccn1 (stereo not drawn) [SW308] | – | less active | – | – | – | – | – | – | 1.7 µM | – | unable to inhibit EBOV virus replication efficiently | – | – | – | – | – |
